Assay results: US20050043331A1, “Substituted 3-(2,5-disubstituted)pyridyl-4-aryl pyrroles for treating inflammatory diseases” (priority 2002, published 2005)
Like-named read-outs stand apart in the source and are kept apart here.

Tests used:
TNF-α [1] = experiment: In-vitro whole cell assay for TNF-α inhibition (LPS-stimulated PBMC, ELISA); format: cell-based; settings: TNF-α by ELISA
Protocol: Freshly obtained venous blood was anticoagulated with heparin, diluted with an equal volume of phosphate buffered saline (“PBS”) and placed in a sterile tube or other container. Aliquots (30 mL) of this mixture were transferred to centrifuge tubes, which were underlaid with Ficoll-Hypaque (15 mL). The prepared tubes were centrifuged at 400×g, without braking, for 30 min at room temperature. Approximately ½ to ⅔ of the platelet layer above the mononuclear cell band was removed with a pipette. The majority of the mononuclear cell layer was carefully removed using a pipette and these PBMC's were diluted with PBS and spun at 600×g for 15 min. The resulting PBMC's were washed with another portion of PBS and spun at 400×g for 10 min at room temperature. The recovered pellets were diluted in low endotoxin RPMI/1% FCS culture medium, and gave a cell concentration of 0.5-2.0×10^6 PMBC/ mL. A small volume of the suspension was removed for counting on a hemocytometer and the remaining preparation was centrifuged at 200×g for 15 min at room temperature. The recovered pelleted PMBC's were resuspended in RPMI/1% FCS to a concentration of 1.67×10^6/mL.
To run the assay, the PBMC suspension (180 μL) was transferred to duplicate wells of a 96-well flat-bottom microtiter plate and incubated for 1 h at 37° C. A solution of test compound (10 μL: prepared at 20× the desired final concentration) was added to each well and the plate was incubated for 1 h at 37° C. A solution (10 μL) of LPS in RPMI/1% FCS (200 ng/mL) was added and the wells were incubated overnight at 37° C. The supernate (100 μL) was removed from each well and diluted with RPMI/1% FCS (400 μL). The samples were analyzed for TNF-α using a commercial ELISA kit (Genzyme).

TNF-α [2] = experiment: In vivo rodent assay for inhibition of LPS-induced TNF-α production; set-up: species or system Mice (BALB/cJ females); settings: 10 mg/kg oral; for inhibition in vivo at 10 mg/kg: Mus musculus, po
Protocol: Mice (BALB/cJ females, Jackson Laboratories) or rats (Lewis males, Charles River) were fasted for 30 min. The animals were dosed orally on a mg/kg basis at a range of times prior to being injected intraperitoneally with LPS at 1 mg/kg and returned to their cages for 1 h. Animals were anesthetized by CO2, exsanguinated by cardiac puncture and whole blood collected (0.1-0.7 mL). The blood was allowed to clot and serum was transferred to a centrifuge tube. This sample was centrifuged, and serum was collected, aliquoted and frozen at −80° C. Samples were tested by commercial ELISA's for TNF-α (Endogen for mouse TNF-α and Biosource for rat TNF-α).

[3] = 0.5 h, 0.5 h, read-out: Mouse 10 mg/kg % inhib 0.5 h
[4] = 2 h, 2 h, read-out: Mouse 10 mg/kg % inhib 2 h

Row | Compound | IC50 (TNF-α [1]) [nM] | inhibition in vivo at 10 mg/kg (TNF-α [2]; [3]) [%] | further results
1 | COC(=O)c1c(-c2ccc(F)cc2)c(-c2ccncc2)c(N(C)CCN2CCSCC2)n1C [Cpd 162] | 183 | – | –
2 | COC(=O)c1c(-c2ccc(F)cc2)c(-c2ccncc2)cn1C(C)=O [Cpd 121] | 194 | -32.1 | –
3 | Cn1cc(-c2ccncc2)c(-c2ccc(F)cc2)c1C#N [Cpd 168] | 171 | 67 | Mouse 10 mg/kg % inhib 2 h (TNF-α [2]; 2 h): −19%
4 | COC(=O)C1CCn2cc(-c3ccncc3)c(-c3ccc(F)cc3)c2C1=O (stereo not drawn) [Cpd 133] | 326 | -9 | –
5 | COC(=O)c1c(-c2ccncc2)c(-c2ccc(F)cc2)c(NCCN2CCOCC2)n1C [Cpd 148] | 10000 | 91 | –
6 | COC(=O)c1c(-c2ccc(F)cc2)c(-c2ccncc2)c(NCCN(C)C)n1C [Cpd 114] | 98 | -43 | –
7 | Cn1cc(-c2ccc(F)cc2)c(-c2ccncc2)c1CO [Cpd 112] | 169 | 65 | –
8 | COC(=O)c1c(-c2ccc(F)cc2)c(-c2ccncc2)cn1CCN(C)C [Cpd 146] | – | -32 | –
9 | N#Cc1[nH]cc(-c2ccncc2)c1-c1ccc(F)cc1 [Cpd 158] | 47 | – | –
10 | COC(=O)c1c(-c2ccc(F)cc2)c(-c2ccncc2)c(-c2ccc(N(C)C)cc2)n1C [Cpd 122] | 120 | -22 | –
11 | Fc1ccc(-c2cn3c(c2-c2ccncc2)CNCC3)cc1 [Cpd 30, 7-(4-Fluorophenyl)-1,2,3,4-tetrahydro-8-(4-pyridinyl)-pyrrolo[1,2-a]pyrazine] | 208 | 71 | –
12 | COC(=O)CCn1c(C#CCCO)c(-c2ccncc2)c(-c2ccc(F)cc2)c1C(=O)OC [Cpd 150] | 5280 | – | –
13 | CCCn1c(NCCN2CCOCC2)c(-c2ccncc2)c(-c2ccc(F)cc2)c1C(=O)OC [Cpd 153] | 589 | – | –
14 | Cn1c(C#N)c(-c2ccc(F)cc2)c(-c2ccncc2)c1NCCN1CCOCC1 [Cpd 171] | 351 | – | –
15 | CCOC(=O)c1[nH]cc(-c2ccncc2)c1-c1cccc(C(F)(F)F)c1 [Cpd 57] | 96 | -8 | –
16 | Cn1cc(-c2ccncc2)c(-c2ccc(F)cc2)c1-c1nnco1 [Cpd 35, 4-[4-(4-Fluorophenyl)-1-methyl-5-(1,3,4-oxadiazol-2-yl)-1H-pyrrol-3-yl]pyridine] | 18 | 60 | inhibition in vivo at 10 mg/kg (TNF-α [2]; [4]): -1%
17 | COC(=O)c1c(-c2ccncc2)c(-c2ccc(F)cc2)c(C#CCCN2CCOCC2)n1C [Cpd 175] | 32 | – | inhibition in vivo at 10 mg/kg (TNF-α [2]; [4]): -4%
18 | COC(=O)c1c(-c2ccc(F)cc2)c(-c2ccncc2)c(Nc2ccccc2)n1C [Cpd 119] | 57 | -10.5 | –
19 | COC(=O)c1c(-c2ccc(F)cc2)c(-c2ccncc2)c(NCCN2CCNCC2)n1C [Cpd 140] | – | 77 | –
20 | COC(=O)c1c(-c2ccc(F)cc2)c(-c2ccncc2)c(Nc2cccc(NC(C)=O)c2)n1C [Cpd 174] | 21 | – | –
21 | CON(C)C(=O)c1c(-c2ccc(F)cc2)c(-c2ccncc2)cn1C [Cpd 37, 3-(4-Fluorophenyl)-N-methoxy-N,1-dimethyl-4-(4-pyridinyl)-1H-pyrrole-2-carboxamide] | 5840 | – | –
22 | COC(=O)c1c(-c2ccc(F)cc2)c(-c2ccncc2)c(N2CCN(C(C)C)CC2)n1C [Cpd 126] | 1980 | – | –
23 | CCNC(=O)N1CCN(c2c(-c3ccncc3)c(-c3ccc(F)cc3)c(C(=O)OC)n2C)CC1 [Cpd 13, 5-[4-[(Ethylamino)carbonyl]-1-piperazinyl]-3-(4-fluorophenyl)-1-methyl-4-(4-pyridinyl)-1H-pyrrole-2-carboxylic acid methyl ester] | 2920 | -38 | –
24 | CN(C)CCn1cc(-c2ccncc2)c(-c2ccc(F)cc2)c1CO [Cpd 147] | 852 | 20 | –
25 | COC(=O)C1CCn2c(I)c(-c3ccncc3)c(-c3ccc(F)cc3)c2C1=O (stereo not drawn) [Cpd 136] | – | 15 | –

Row | Compound | IC50 (TNF-α [1]) [nM] | inhibition in vivo at 10 mg/kg (TNF-α [2]; [3]) [%] | further results
26 | Cn1cc(-c2ccncc2)c(-c2ccc(F)cc2)c1C#N [Cpd 169] | – | – | Mouse 10 mg/kg % inhib 2 h (TNF-α [2]; 2 h): 49%
27 | Cn1c(CO)c(-c2ccc(F)cc2)c(-c2ccncc2)c1N1CCN(C(=O)OC(C)(C)C)CC1 [Cpd 151] | – | 83 | –
28 | COC(=O)c1c(-c2ccc(F)cc2)c(-c2ccncc2)c(NCCc2ccncc2)n1C [Cpd 154] | 145 | – | –
29 | COC(=O)c1c(-c2ccncc2)c(-c2ccc(F)cc2)c(N(C)CCN2CCOCC2)n1C [Cpd 164] | 3510 | – | –
30 | COC(=O)c1c(-c2ccc(F)cc2)c(-c2ccncc2)cn1CCO [Cpd 165] | 692 | – | –
31 | Cn1c(C(O)c2ccccc2)c(-c2ccc(F)cc2)c(-c2ccncc2)c1N1CCNCC1 (stereo not drawn) [Cpd 117] | 660 | – | –
32 | COC(=O)c1c(-c2ccc(F)cc2)c(-c2ccncc2)c(N2CCC(NC(=O)OC(C)(C)C)C2)n1C (stereo not drawn) [Cpd 110] | 1660 | – | –
33 | CCCCNCc1c(-c2ccncc2)c(-c2ccc(F)cc2)cn1C [Cpd 123] | 1080 | – | –
34 | O=C1OCCn2cc(-c3ccncc3)c(-c3ccc(F)cc3)c21 [Cpd 46, 8-(4-Fluorophenyl)-3,4-dihydro-7-(4-pyridinyl)-1H-pyrrolo[2,1-c][1,4]oxazin-1-one] | 160 | – | –
35 | COC(=O)c1c(-c2ccc(F)cc2)c(-c2ccncc2)c(NCCN2CCCC2)n1C [Cpd 118] | 1390 | – | –
36 | CCCc1c(-c2ccnc(N[C@@H](C)c3ccccc3)n2)c(-c2ccc(F)cc2)cn1C(=O)OC(C)(C)C [Cpd 49] | – | -79 | –
37 | CCOC(=O)c1c(-c2ccc(F)cc2)c(-c2ccncc2)c(CCCO)n1C [Cpd 17, 3-(4-Fluorophenyl)-5-(3-hydroxypropyl)-1-methyl-4-(4-pyridinyl)-1H-pyrrole-2-carboxylic acid ethyl ester] | 186 | – | –
38 | COC(=O)c1c(-c2ccc(F)cc2)c(-c2ccncc2)c(NCCNC(C)=O)n1C [Cpd 135] | 1690 | – | –
39 | COC(=O)c1c(-c2ccc(F)cc2)c(-c2ccncc2)c(N2CCN(CC3CCCCC3)CC2)n1C [Cpd 130] | 573 | – | –
40 | CC(O)c1c(-c2ccc(F)cc2)c(-c2ccncc2)cn1C (stereo not drawn) [Cpd 40, 3-(4-Fluorophenyl)-[…], 1-dimethyl-4-(4-pyridinyl)-1H-pyrrole-2-methanol] | 1450 | – | –
41 | CC(=O)N1CCN(c2c(-c3ccncc3)c(-c3ccc(F)cc3)c(-c3nnco3)n2C)CC1 [Cpd 157] | – | 19 | –
42 | CCCN1CCN(c2c(-c3ccncc3)c(-c3ccc(F)cc3)c(C(=O)OC)n2C)CC1 [Cpd 127] | 901 | – | –
43 | COC(=O)c1c(-c2ccc(F)cc2)c(-c2ccncc2)c(NCCCN2CCOCC2)n1C [Cpd 149] | – | 64 | –
44 | CC(=O)c1c(-c2ccc(F)cc2)c(-c2ccncc2)cn1C [Cpd 39, 1-[3-(4-Fluorophenyl)-1-methyl-4-(4-pyridinyl)-1H-pyrrol-2-yl]ethanone] | 597 | – | –
45 | COC(=O)c1c(-c2ccc(F)cc2)c(-c2ccncc2)c(NC2CCN(Cc3ccccc3)CC2)n1C [Cpd 120] | 1310 | – | –
46 | COC(=O)c1c(-c2ccc(F)cc2)c(-c2ccncc2)c(-c2ccncc2)n1C [Cpd 137] | – | 51 | –
47 | COC(=O)c1c(-c2ccc(F)cc2)c(-c2ccncc2)c(Nc2ccc3c(c2)N(C(C)=O)CC3)n1C [Cpd 166] | 650 | – | –
48 | COC(=O)CCCn1c(NCCN2CCOCC2)c(-c2ccncc2)c(-c2ccc(F)cc2)c1C(=O)OC [Cpd 23a] | 29 | – | –
49 | COC(=O)c1c(-c2ccc(F)cc2)c(-c2ccncc2)c(NCCNC(=O)OC(C)(C)C)n1C [Cpd 132] | 1640 | – | –
50 | COC(=O)c1c(-c2ccc(F)cc2)c(-c2ccncc2)c(NC(C)=O)n1C [Cpd 142] | 1490 | – | –
